According to PubChem BioAssay AID624344 (Sanford-Burnham Center for Chemical Genomics, 2012):
Active and inactive are the calls of the source. The rule behind the calls is not given here. Peptide text beside a SMILES is read from it. * marks the point of attachment. CH2Cl = ClC*

Assays:
[1] = NFkB reporter suppression in cystic fibrosis bronchial cells – cell-based, uHTS hits, panel, cytotoxicity readout, dose response (AID 624344); details: CF bronchial epithelial cells, PAF-induced NFkB reporter inhibition; with PAF, mean of runs
Cytotoxicity = assay: as above; details: CF bronchial epithelial cells, mean of runs

Compound	IC50 [1]	IC50 (Cytotoxicity)
Cc1ccc(C)c(S(=O)(=O)N(C(=O)c2ccncc2)c2ccc(OC(=O)c3ccncc3)cc2)c1	2.37 µM	26.2 µM
Cc1ncc(CO)c2c1Oc1nc(-c3ccccc3F)nc(SCC(=O)N(C)c3ccccc3)c1C2	4.17 µM	11.3 µM
O=C(Nc1ccc(F)cc1)Nc1ccc(N2CCCC2)c(S(=O)(=O)Nc2ccccc2Cl)c1	7.2 µM	42.5 µM
c1cncc(CNc2ncnc3ccc(-c4ccoc4)cc23)c1	1.39 µM	50.1 µM (inactive)
N#Cc1ccsc1NC(=O)c1ccc(Cl)c([N+](=O)[O-])c1	4.95 µM	18.4 µM
N#Cc1c(Br)n(C2OC(CO)C(O)C2O)c2ncnc(N)c12 (configuration not stated)	0.444 µM	3.58 µM
C=C1C(=O)OC2CC3(C)OC3CCC(C)=CC(OC(C)=O)C12 (configuration not stated)	2.27 µM	2.35 µM
CCCCCCc1cc2cc(S(=O)(=O)c3ccc(F)cc3)c(=O)oc2cc1O	4.48 µM	4.76 µM
COc1ccc(Nc2nc(-c3ccccc3)nc3ccccc23)cc1S(=O)(=O)N1CCOCC1	4.84 µM	7.17 µM
COc1ccc(-c2csc3ncnc(NCCO)c23)cc1	1.85 µM	54 µM (inactive)
O=C(CCS(=O)(=O)c1ccccc1)N(CCCN1CCOCC1)c1nc2c(F)cccc2s1	7.63 µM	18.1 µM
COc1ccc(Nc2nccc(-c3cccc(N)c3)n2)cc1	4.14 µM	42.6 µM
O=c1[nH]c2ccccc2n1C1CCN(C(c2cccc3ccccc23)c2nnnn2Cc2ccccc2)CC1 (configuration not stated)	3.25 µM	10 µM
Oc1ccc(C[C@H]2CNC(=S)N2CC2CCCN2C[C@H](Cc2ccc(O)cc2)N2C[C@H](Cc3ccc(O)cc3)N(CC3CCCCC3)C2=S)cc1 (some centres not stated)	10.3 µM	15.4 µM
C[C@@H]1C[C@@H]([C@H](O)CC2CC(=O)NC(=O)C2)C(=O)[C@@H](C)C1	0.46 µM	11.6 µM
CC(=O)Nc1ccc(-c2ccnc3c2CC(C(=O)NCc2ccccc2)O3)cc1 (configuration not stated)	> 79 µM (inactive)	> 79 µM (inactive)
CCCCCCc1cc2cc(C(=O)Nc3ccccc3OC)c(=O)oc2cc1O	inactive	49.4 µM
C=CCc1cc(S(=O)(=O)c2ccc(O)c(CC=C)c2)ccc1O	6.34 µM	56.8 µM (inactive)
CCOC(=O)c1ccc(NC(=O)Nc2nncs2)cc1	9.39 µM	64 µM (inactive)
ON=C1c2ccccc2-c2cc(Br)ccc21	1.87 µM	41.4 µM
NS(=O)(=O)c1ccc(CCNC(=O)c2ccc(C#CC3(O)CCCCC3)cc2)cc1	3.47 µM	5.01 µM

Compound	IC50 [1]	IC50 (Cytotoxicity)
Cc1ccc(Nc2nc3nonc3[nH]c2=O)cc1Cl	4.7 µM	15.1 µM
CN(C)c1ccc(C(C(=O)NCc2ccccc2)N(Cc2ccco2)C(=O)c2snc(C(N)=O)c2N)cc1 (configuration not stated)	3.08 µM	6.97 µM
CN(c1cccc(Cl)c1)S(=O)(=O)c1cccc(C(=O)Nc2nc3ccccc3[nH]2)c1	6.19 µM	12.2 µM
COc1ccc(CN2C[C@H]3CCCN3c3cc(Br)ccc3S2(=O)=O)cc1	9.73 µM	61.7 µM (inactive)
CC(=O)c1ccc(NC(=O)Nc2ccc3c(c2)N(C)C(=O)CS3)cc1	5.14 µM	29.2 µM
c1ccc2c(c1)Nc1ccncc1S2	1.46 µM	44.1 µM
COc1cccc(-c2nnc3sc(C4CCCCC4)nn23)c1	0.82 µM	10.6 µM
Cc1cccc(N(Cc2cc(=O)[nH]c3ccccc23)C(=O)CCl)c1	1.23 µM	2 µM
O=C(Nc1ccc(Cl)cc1)c1nc[nH]c1C(=O)NCCCCNC(=O)c1[nH]cnc1C(=O)Nc1ccc(Cl)cc1	1.05 µM	1.11 µM
Cc1c(C(=O)OCC(C)C)[nH]c2c1C(=O)CC(c1ccco1)C2 (configuration not stated)	inactive	38.3 µM
OCCNc1nc(Nc2ccc(Cl)c(Cl)c2)nc2ccccc12	2.16 µM	4.07 µM
Cc1ccc(S(=O)(=O)N2[C@@H](c3ccc(C(C)(C)C)cc3)C(C(=O)O)=CC[C@H]2c2ccc(C(C)C)cc2)cc1	12.9 µM	55.7 µM (inactive)
Cc1cnc(NC(=O)CCCc2nc3ccccc3s2)s1	4.23 µM	44.5 µM
CCOc1ccc(NCc2cc3c(C(C)(C)C)nn(-c4ccccc4)c3[nH]c2=O)cc1	7.26 µM	27.4 µM
CCN1CCN(Cc2ccc(NC(=O)c3ccc(C)c(NC(=O)c4cc(-c5ccc(Br)cc5)n[nH]4)c3)cc2C(F)(F)F)CC1	2.77 µM	42.5 µM
O=C(NNc1ccccc1Br)C(O)(c1cccc(C(F)(F)F)c1)c1cccc(C(F)(F)F)c1	5.72 µM	7.73 µM
C=C1C(=O)O[C@@H]2[C@H]1CC[C@H](C)[C@]1(O)CCC(=O)[C@@]21C	2.37 µM	40 µM
O=C(Nc1ccc(Oc2ccc(NC(=O)Nc3ccc([N+](=O)[O-])cc3)cc2)cc1)Nc1ccc([N+](=O)[O-])cc1	6.12 µM	27.8 µM
Cn1c(=O)c2c(nc(Oc3ccc4ccccc4c3)n2C)n(C)c1=O	9.64 µM	> 79 µM (inactive)
CC1Sc2ccc(Cl)cc2-c2nc(N)ncc21 (configuration not stated)	6.98 µM	75 µM (inactive)
C=CCN(CC=C)c1ncnc2[nH]ncc12	1.24 µM	> 79 µM (inactive)

Compound	IC50 [1]	IC50 (Cytotoxicity)
O=C(Nc1cccc2[nH]ncc12)c1ccc(F)cc1	1.06 µM	> 79 µM (inactive)
CC(=O)c1c(C)n(-c2ccc(C)cc2C)c2ccc(O)cc12	12.7 µM	> 79 µM (inactive)
COc1ccc(OC)c(-c2nnc3n2N=C(c2ccc(OC)c(OCC4CC4)c2)CS3)c1	3.87 µM	47.7 µM
Nc1ncc([N+](=O)[O-])c(N2CCCCCC2)n1	2.28 µM	> 79 µM (inactive)
O=C(Nc1ccc(Br)c2ccccc12)c1ccc2ccccc2c1O	1.93 µM	2.38 µM
N#CC1c2ccccc2-n2nncc2CN1Cc1cc(Cl)cc(Cl)c1 (configuration not stated)	2.16 µM	1.6 µM
O=C(OC1CCOC1=O)c1ccccc1C(=O)c1ccc(Cl)c([N+](=O)[O-])c1 (configuration not stated)	4.44 µM	7.46 µM
OCCN1CCN(c2ncnc3ccc(Br)cc23)CC1	2.44 µM	55.7 µM (inactive)
CCOC(=O)C1(C(=O)OCC)COC(=O)C1CN1Cc2cc3ccccc3nc2C1 (configuration not stated)	7.48 µM	11.1 µM
COc1ccc(-c2cc(C(F)(F)F)nc(S(=O)(=O)CCCC(=O)Nc3cccnc3Cl)n2)cc1OC	1.44 µM	1.32 µM
Nc1nc(N)nc(-c2cc(O)ccc2O)n1	3.31 µM	21.2 µM
C=CC(=O)Nc1cccc(Oc2ncnc3[nH]cc(-c4cnc5ccccc5c4)c23)c1	1.35 µM	54.8 µM (inactive)
FC(F)Sc1ccc(NC(=S)NC(c2ccccc2)c2ccccc2)cc1	6.53 µM	9.19 µM
COc1cccc(-c2ccc3ncnc(NCc4cccc(C)c4)c3c2)c1	5.66 µM	13 µM
COc1ccc(NC(=O)Cn2ncn3nc(-c4ccc(OC)cc4)cc3c2=O)cc1	6.69 µM	5.34 µM
Cc1nn(-c2ccccc2)c(N2CCCC2)c1/C=N/NC(=O)c1cc(-c2ccccc2)nc2ccccc12	5.62 µM	58.7 µM (inactive)
N#Cc1c(-c2ccc(Cl)cc2)n(O)c2ccccc12	2.85 µM	3.98 µM
O=C1C(=Cc2ccccc2[N+](=O)[O-])Cc2ccccc21	6.36 µM	8.65 µM
Cc1ccc(NC(=O)Nc2nnc(-c3ccncc3)s2)cc1	5.53 µM	11 µM
CC(=O)NC(CC(C)C)C(=O)NC(Cc1ccccc1)C(=O)CCl (stereo not drawn) (Ac-Leu-Phe-CH2Cl; configuration not given here)	2.83 µM	17.6 µM
O=C(Nc1nnc(S(=O)(=O)N2CCCCCC2)s1)c1cccc(Br)c1	2.68 µM	7.27 µM

Compound	IC50 [1]	IC50 (Cytotoxicity)
COc1cc(NC(=O)c2csc(-c3ccncc3)n2)cc(C(=O)Nc2cccc(C(F)(F)F)c2)c1	4.32 µM	46 µM
O=c1[nH]c2ccccc2n1C1CCN(C(c2cc3ccccc3o2)c2nnnn2-c2ccc3c(c2)OCCO3)CC1 (configuration not stated)	3.2 µM	10.2 µM
COc1ccc2[nH]c3c(c2c1)CC(C)NC3=O (configuration not stated)	1.3 µM	55.3 µM (inactive)
CC1C(=O)N(Cc2cn(Cc3ccco3)nn2)CCS(=O)(=O)N1Cc1ccc(-c2ccccc2C(F)(F)F)cc1 (configuration not stated)	14 µM	57.4 µM (inactive)
O=C(Nc1cccc(Cl)c1)Nc1csc([N+](=O)[O-])c1	4.12 µM	0.788 µM
CCOc1ccc(-n2c(C)c(C(C)=O)c3cc(O)ccc32)cc1	1.87 µM	> 79 µM (inactive)
CCN1CCN(Cc2ccc(NC(=O)c3ccc(C)c(NC(=O)c4ccno4)c3)cc2C(F)(F)F)CC1	< 0.15 µM	> 79 µM (inactive)
Cc1nc([N+](=O)[O-])c(Sc2nc3ccc([N+](=O)[O-])cc3[nH]2)n1Cc1ccccc1	3.5 µM	8.03 µM
CCOC(=O)N1CCC(NC(=O)c2ccc3c(c2)N=C(C)c2c(C)ccc(C)c2S3)CC1	11 µM	41.4 µM
Nc1nccc(SCc2ccc(Cl)cc2Cl)n1	14.3 µM	> 79 µM (inactive)
CC(=O)c1c(O)cc(O)c(C(C)=O)c1O	5.34 µM	5.8 µM
CCC1(O)C(=O)OCc2c1cc1n(c2=O)Cc2cc3cc(O)ccc3nc2-1 (configuration not stated)	0.284 µM	1.09 µM
CN(CCC#N)C(=O)COC(=O)c1ccccc1C(=O)c1ccc(Cl)c([N+](=O)[O-])c1	5.31 µM	16.5 µM
ON=C1c2ccccc2-c2ccccc21	19.5 µM	63 µM (inactive)
CC(=O)OCCN1c2ccccc2Sc2cnccc21	4.33 µM	63.5 µM (inactive)
CC(=O)N1CC(=O)N=C1SCC(=O)Nc1nc(C)c(-c2ccccc2)s1	9.21 µM	59.7 µM (inactive)
CC(=O)Oc1c(Br)cc(N(C(C)=O)S(=O)(=O)c2ccccc2)c2ccccc12	7.32 µM	9.15 µM
Cc1ccc(NC(=O)Nc2cccc([N+](=O)[O-])c2)cc1F	6.2 µM	3.58 µM
